From patent publication US6753176B2, “Aggrecan degrading metallo proteases” (Bristol-Myers Squibb Company, priority 1997, dated 2004)
Entries after “also recorded” stand apart in the source; their conditions may differ.

Tests used:
[1] = system: ADMP; assay: ADMP (aggrecanase) activity: cleavage of purified bovine aggrecan monomers at Glu373-Ala374, BC-3 neoepitope antibody Western; assay type: biochemical
Procedure: ADMPs were detected at this point by their ability to cleave purified bovine aggrecan monomers isolated from bovine nasal cartilage by the following procedure: Aggrecan was extracted from the cartilage by stirring at 4° C. for 48 hours in 10 volumes of 4M guanidine-HCl in 0.05 M sodium acetate, pH 5.8, containing the protease inhibitors, 0.01M EDTA (EDTA is ethylenediaminetetraacetic acid), 0.1M 6-aminohexanoic acid, 2 mM PMSF and 0.05M benzamidine HCl. Aggrecan monomers were isolated by equilibrium density gradient centrifugation in cesium chloride [Hascall, V. C. and Sajdera, S. W. (1969) J. Biol. Chem. 244, 2384-2396.] and the bottom of this gradient (d>1.54 g/ml) containing the aggrecan monomers, was dialyzed at 4° C. against water and lyophilized.
These aggrecan monomers (500 nM) were incubated at 37° C. for at least 4 hr with ADMPs eluted from the Macro S support column in a final volume of 200 ul in Buffer B (Buffer B contains 50 mM Tris, pH 7.6, containing 0.1 M NaCl and 10 mM CaCl2), quenched with 20 mM EDTA and analyzed for aggrecan fragments produced exclusively by cleavage at the Glu^373-Ala^374 bond within the aggrecan core protein using the monoclonal antibody, BC-3 (Hughes, C. E., et al., Biochem. J. 306:799-804, 1995). This antibody recognizes aggrecan fragments with the N-terminal sequence A^374RGSVIL . . . , generated upon cleavage by ADMPs. The BC-3 antibody recognizes this neoepitope only when it is the N-terminus and not when it is present internally within aggrecan fragments or within the intact aggrecan core protein. […]
After digestion, the samples were precipitated with 5 volumes of acetone and reconstituted in an appropriate volume of SDS-PAGE sample buffer, loaded on 4-12% gradient gels and then separated by SDS-PAGE under non reducing conditions, transferred overnight to nitrocellulose and immunolocated with 1:1000 dilution of the monoclonal antibody BC-3. […] BC-3-reactive aggrecan fragments were then quantified by scanning densitometry.

[2] = molecular target: T1, ADMP-1 (Bos taurus, UniProt Q9TT93); assay: Binding of 67 kDa ADMP-1 doublet to aggrecanase-inhibitor hydroxamate affinity resin in the presence of inhibitor; parameters: species or system bovine
T1 construct: from tissue; host or cells: conditioned medium of IL-1-stimulated bovine nasal cartilage, purified over Macro S, gelatin-agarose and TIMP-1/protein A
T1 sequence (Q9TT93 213-839): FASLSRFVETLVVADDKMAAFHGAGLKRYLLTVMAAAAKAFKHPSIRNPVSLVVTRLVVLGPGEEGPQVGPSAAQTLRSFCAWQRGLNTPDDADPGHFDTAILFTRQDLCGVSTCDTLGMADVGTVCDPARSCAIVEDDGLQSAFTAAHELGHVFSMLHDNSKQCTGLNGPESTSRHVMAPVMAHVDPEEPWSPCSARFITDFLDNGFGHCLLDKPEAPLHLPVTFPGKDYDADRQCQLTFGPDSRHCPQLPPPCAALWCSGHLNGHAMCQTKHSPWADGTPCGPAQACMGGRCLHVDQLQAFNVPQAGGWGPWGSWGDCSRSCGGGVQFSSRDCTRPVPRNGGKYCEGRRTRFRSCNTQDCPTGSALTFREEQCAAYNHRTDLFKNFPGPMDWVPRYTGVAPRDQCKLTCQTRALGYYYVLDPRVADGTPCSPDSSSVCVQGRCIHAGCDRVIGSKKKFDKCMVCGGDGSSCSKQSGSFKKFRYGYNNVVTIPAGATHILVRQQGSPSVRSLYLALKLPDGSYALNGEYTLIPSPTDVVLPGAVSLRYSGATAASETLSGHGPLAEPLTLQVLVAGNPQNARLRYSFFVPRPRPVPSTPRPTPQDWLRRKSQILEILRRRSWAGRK
Source text: An ADMP-inhibitor hydroxamate affinity resin was produced in the following manner. POROS 20-NH perfusive chromatographic media (Perseptive Biosystems), a highly crosslinked poly(styrene divinylbenzene) polymer, was mixed overnight with four equivalents of Fmoc-beta-alanine, four equivalents HBTU (O-Benzotriazole-N,N,N′,N′-tetramethyl-uronium hexafluorophosphate), and eight equivalents DIEA (N,N diisopropylethylamine) in DMF (dimethylformamide). The resin was rinsed several times with DMF, then the FMOC group was removed with 20% piperidine/DMF. This coupling/deprotecting scheme was repeated three more times, resulting in four beta-alanine residues coupled to the resin. After the final piperidine deprotection, 1.5 equivalents of a t-butyl protected hydroxamic acid capable of inhibiting ADMP activity was coupled with 1.5 equivalents HBTU and 3 equivalents DIEA in DMF. After rinsing with DMF and CH2Cl2, the t-butyl group was removed by mixing overnight with TFA (trifluoroacetic acid), leaving the hydroxamic acid. The resin was thoroughly rinsed with CH2Cl2 and dried under vacuum.
The eluate from the protein A column was neutralized with 1 M Tris base to pH 7.5 and then incubated for 2 hours with the aggrecanase-inhibitor hydroxamate resin at a ratio of 1 mg resin for every 1 ml of eluate. […]

[3] = system: matrix metalloproteinases; assay: Inhibition of matrix metalloproteinases; assay type: biochemical

Molecule	inhibition of ADMP activity [1]	binding of 67 kDa ADMP-1 to the affinity resin ([2]; compound present during affinity purification)	inhibition of matrix metalloproteinases [3]	binding of 67 kDa ADMP-1 doublet to aggrecanase-inhibitor hydroxamate resin ([2]; 10 uM compound included during affinity purification)
CNC(=O)[C@H]1CCCNN1C(=O)[C@@H](CC(C)C)[C@@H](C)C(=O)NO [Compound A, N3-methyl-(3R)-2-[(2S)-2-[(1R)-2-(hydroxyamino)-1-methyl-2-oxoethyl]-4-methylpentanoyl]hexahydro-3-pyridazinecarboxamide]	ineffective; also recorded: inactive	not affected	broad spectrum inhibitor; also recorded: potent inhibitor	
CNC(=O)[C@@H]1CCCCNC(=O)CC[C@H](C(=O)NO)[C@H](CC(C)C)C(=O)N1 [Compound B, (2S,11S, 12S)-12-isobutyl-2-[(methylamino)carbonyl]-11[(hydroxylamino)carbonyl]-8,13-dioxo-1,7-diazacyclotridecane]	potent ADMP inhibitor			blocked
tissue inhibitor of metalloproteinases-1 [TIMP-1]	inhibited			
